“Also recorded” adds a separate entry of the source.
Tests used:
heme-oxygenase-1 (HO-1) = test: HO-1 expression in HIV-infected and non-infected monocyte-derived macrophages (MDM) treated with test drug; assay type: cell-based, human; conditions: Bardoxolone 5 nM or 50 nM, FIG. 1, Panel A
Description: (§1) FIG. 1 includes three panels identified as panels A, B, and C showing the results of preclinical testing of Bardoxolone in human monocyte-derived macrophages (MDM) and primary rodent neurons. […] “Mock 1” and “Mock 2” correspond to supernatant from untreated, uninfected macrophages run in parallel with treated macrophages. “Vehicle 1” and “Vehicle 2” correspond to supernatant from macrophages that received 0.05% DMSO and no additional drug. […] This effect is seen at Bardoxolone concentrations as low as 5 nM.
(§2) Monocyte-derived macrophages (MDM), obtained from uninfected donors, were pretreated with Bardoxolone (5 nM or 50 nM), Tempol, 4-hydroxy-2,2,6,6-tetramethylpiperidin-1-oxyl, (500 nM or 5 μM) or control (0.05% DMSO) for 24 hours prior to HIV infection. […] See FIG. 1, Panel A. This enhanced HO-1 expression decreases release of soluble neurotoxins from infected MDM. “Mock 1” and “Mock 2” correspond to supernatant from untreated, uninfected macrophage run in parallel with treated macrophages. “Vehicle 1” and “Vehicle 2” correspond to supernatant from macrophages that received 0.05% DMSO and no additional drug. Final concentration of DMSO in all treated wells is 0.05%.

primary rodent neurons = test: Neurotoxicity of MDM culture supernatants on cultured primary rodent neurons (MAP-2 expression); assay type: cell-based; conditions: supernatants of HIV infected MDM on primary rodent neurons, FIG. 1, Panel C
Description: as §1
In addition, pre-treated neurons were exposed to the supernatants. Briefly, MDM culture supernatants are applied to cultured primary rodent neurons to test for MDM culture supernatant neurotoxicity. […] This is an indication of neuronal health.

[1] = tested on: HIV-infected U1 monocytes; test: Viral expression (p24 gag) in HIV-infected U1 monocytes after LPS stimulation; assay type: cell-based; conditions: 250 nM pre-treatment overnight, LPS activated; FIG. 2
Protocol: As such, methods for reducing viral replication may reduce risk for HAND. In another series of experiments, HIV-infected monocytes were exposed to a virus replication stimulus to determine if pretreatment with Bardoxolone inhibited viral replication. […] Here, a comparison of control cells with those pre-treated with either Tempol (1 μM) or Bardoxolone (250 nM) overnight was performed. The cells were then split into two conditions: LPS activated and non-LPS.

HIV = HIV replication in MDM by reverse transcriptase (RT) activity in the culture supernatant; assay type: cell-based; conditions: FIG. 1, Panel B
Description: as §1, §2
Viral replication was determined via reverse, transcriptase (RT) expression in the cell culture supernatant. The RT assay measured incorporation of ^32P dT into long chain poly rA.

Compound: CC1(C)CC[C@]2(C(=O)O)CC[C@]3(C)[C@H](C(=O)C=C4[C@@]5(C)C=C(C#N)C(=O)C(C)(C)[C@@H]5CC[C@]43C)[C@@H]2C1 [Bardoxolone]
- expression of HO-1 in HIV-infected MDM (heme-oxygenase-1 (HO-1); 24 hours before HIV infection and throughout infection): enhanced expression
- expression of HO-1 in non-infected MDM (heme-oxygenase-1 (HO-1)): enhanced expression
- levels of MAP-2 in the neuron cultures (primary rodent neurons): maintenance or normal levels
- neurotoxicity of the MDM cell culture supernatants (primary rodent neurons; compared to vehicle control and to Tempol): dramatically reduced
- amount of viral expression (p24 gag) following stimulation [1]: reduced; also recorded: decreased
- concentration at which reduction of HIV replication in MDM is seen (HIV; lowest concentration tested, RT activity): ≤ 5 nM
- HIV reverse transcriptase (RT) activity in the culture supernatants (HIV replication in MDM) (HIV; pre-treatment 24 hours before HIV infection, 5 nM or 50 nM): reduced levels

— patent US20170333450A1, “COMPOSITIONS AND METHODS FOR TREATING HIV-ASSOCIATED COGNITIVE DYSFUNCTION” (The Regents of the University of California, priority 2014, published 2017)
